# Data as given in PubChem BioAssay AID1963834 (Molecular Pharmacology Branch, DTP, NCI, 2024).
# Tested on: 873145-292-R-J1-PDC complex spheroid viability
# Assay: Anticancer human tumor 873145-292-R-J1-PDC patient-derived renal clear cell carcinoma cell line growth inhibition [POLQ]
# Settings: for IC50: curve of first compound; for viability, T/C: stronger effect = lower value
# Summary of the method: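 Complex spheroid viability model combining PDC tumour cells with endothelial (HUVEC) and MSC stromal cells. Novobiocin, ART-558 or RP6685 were tested singly and in combination with standard and investigational anticancer drugs. Each was titrated in half-log steps from near clinical Cmax, or from 10 microM where Cmax was unknown.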
# 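Also: spheroids exposed to compounds for 7 days before viability readout.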
# 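For viability, T/C in this document: luminescence signal used as surrogate for viable cell content; 100% = DMSO vehicle control viability.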
compound,measurement,setting,value
CCc1c2c(nc3ccc(O)cc13)-c1cc3c(c(=O)n1C2)COC(=O)[C@]3(O)CC + Cc1cccc(N(C)C(=O)C2C(O)CCN2c2nc(C)cc(C(F)(F)F)c2C#N)c1,IC50,second compound 0.0316 µM,76.2 nM
same,IC50,second compound 0.1 µM,71.7 nM
same,IC50,second compound 0.316 µM,68.6 nM
same,IC50,second compound 1 µM,64.9 nM
same,IC50,second compound 3.16 µM,35.5 nM
same,IC50,second compound 10 µM,74.4 nM
same,"viability, T/C","second compound 0.0316 µM, first compound 0.00316 µM",98.7%
same,"viability, T/C","second compound 0.0316 µM, first compound 0.01 µM",80.6%
same,"viability, T/C","second compound 0.0316 µM, first compound 0.0316 µM",57.2%
same,"viability, T/C","second compound 0.0316 µM, first compound 0.1 µM",46.8%
same,"viability, T/C","second compound 0.0316 µM, first compound 0.316 µM",40%
same,"viability, T/C","second compound 0.0316 µM, first compound 1 µM",28.6%
same,"viability, T/C","second compound 0.1 µM, first compound 0.00316 µM",103%
same,"viability, T/C","second compound 0.1 µM, first compound 0.01 µM",81.6%
same,"viability, T/C","second compound 0.1 µM, first compound 0.0316 µM",54.2%
same,"viability, T/C","second compound 0.1 µM, first compound 0.1 µM",46.7%
same,"viability, T/C","second compound 0.1 µM, first compound 0.316 µM",41.9%
same,"viability, T/C","second compound 0.1 µM, first compound 1 µM",28.2%
same,"viability, T/C","second compound 0.316 µM, first compound 0.00316 µM",107%
same,"viability, T/C","second compound 0.316 µM, first compound 0.01 µM",91.9%
same,"viability, T/C","second compound 0.316 µM, first compound 0.0316 µM",57.9%
same,"viability, T/C","second compound 0.316 µM, first compound 0.1 µM",45.3%
same,"viability, T/C","second compound 0.316 µM, first compound 0.316 µM",39.4%
same,"viability, T/C","second compound 0.316 µM, first compound 1 µM",26.1%
same,"viability, T/C","second compound 1 µM, first compound 0.00316 µM",97.2%
same,"viability, T/C","second compound 1 µM, first compound 0.01 µM",79.8%
same,"viability, T/C","second compound 1 µM, first compound 0.0316 µM",64.2%
same,"viability, T/C","second compound 1 µM, first compound 0.1 µM",39.2%
same,"viability, T/C","second compound 1 µM, first compound 0.316 µM",37.9%
same,"viability, T/C","second compound 1 µM, first compound 1 µM",29.4%
same,"viability, T/C","second compound 3.16 µM, first compound 0.00316 µM",95%
same,"viability, T/C","second compound 3.16 µM, first compound 0.01 µM",69.8%
same,"viability, T/C","second compound 3.16 µM, first compound 0.0316 µM",54.1%
same,"viability, T/C","second compound 3.16 µM, first compound 0.1 µM",36.9%
same,"viability, T/C","second compound 3.16 µM, first compound 0.316 µM",33.7%
same,"viability, T/C","second compound 3.16 µM, first compound 1 µM",33.2%
same,"viability, T/C","second compound 10 µM, first compound 0.00316 µM",87.8%
same,"viability, T/C","second compound 10 µM, first compound 0.01 µM",65.6%
same,"viability, T/C","second compound 10 µM, first compound 0.0316 µM",56.4%
same,"viability, T/C","second compound 10 µM, first compound 0.1 µM",47.5%
same,"viability, T/C","second compound 10 µM, first compound 0.316 µM",47.6%
same,"viability, T/C","second compound 10 µM, first compound 1 µM",31.7%
